Experimental data as given in article PMC7859440, “Transporter Gene Regulation in Sandwich Cultured Human Hepatocytes Through the Activation of Constitutive Androstane Receptor (CAR) or Aryl Hydrocarbon Receptor (AhR)” (Frontiers in Pharmacology, 2021).
Values joined by “and” are separate entries in the source; they are usually repeats but may differ in a detail not shown here. Identical values can stand only once.

Legend:
SLC10A1 (NTCP) = assay: gene induction in sandwich-cultured human hepatocytes (qRT-PCR); type: cell-based; conditions: SCHH
Experimental: A RNeasy 96 Kit (Qiagen) was used to extract the total cellular RNA from sandwich cultured hepatocytes in 96-well plates following the manufacturer's instructions. A total volume of 200 μL RNA was obtained via the column elution provided in the RNeasy kit. Five μL RNA extraction was mixed with TaqMan® Fast Virus 1-Step Master Mix (Life Technologies) in a final reaction volume of 20 μL and qRT-PCR was achieved using a QuantStudio 6 Flex Real-Time PCR System (Life Technologies), following the manufacturer's instructions. β-actin mRNA expression in the SCHH was used as a house-keeping gene for the normalization of target gene expressions. The mRNA levels in SCHH treated with AhR or CAR activators were expressed by a fold change, compared to the gene expressions without the treatment. The 2^−ΔΔCt method ([Livak and Schmittgen, 2001]) was used to analyze the relative changes in gene expression, where the Ct is the cycle number at which the fluorescence in the reaction crosses the preset arbitrary threshold; the ΔCt represents the difference between the Ct target and reference and the ΔΔCt is the difference between the ΔCt of the test and the ΔCt of the preassigned control. Gene expression for each condition is expressed as a fold-change of mean ± standard deviation (SD) from three independent donors (each performed in triplicate). […] When concentration-dependent induction observed, the in vitro induction mRNA data were fitted using the sigmoid 3-parameter equation in GraphPad Prism (La Jolla, CA) to estimate the in vitro concentration of inducer that produced half the maximum induction values (EC50).

SLC22A9 (OAT7) = assay: as above; type: cell-based; conditions: SCHH, 72 h; TCDD 50 nM, OP 50 µM, CITCO 5 µM, PB 1,000 µM (highest conc.); mean ± SD, three donors
SLC22A7 (OAT2) = assay: as above; type: cell-based; conditions: SCHH, 72 h; TCDD 50 nM, OP 50 µM, CITCO 5 µM, PB 1,000 µM (highest conc.); mean ± SD, three donors
CYP3A4 = assay: in vitro; conditions: greater than 50% reduction, in only two donors among three lots of hepatocytes
Experimental: (§1) Cryopreserved human hepatocytes were quickly thawed at 37°C and then transferred into hepatocyte thawing medium. Cells were pelleted at 100 × g for 10 min and then resuspended in hepatocyte complete plating medium (CP medium). The cells were then seeded at 65,000 cells per well in 96-well collagen I coated plates. After cell attachment (4–6 h post-seeding), CP medium was exchanged for ice-cold complete incubation medium (HI medium) containing BD Matrigel™ at the concentration of 0.25 mg/ml. The cells were then incubated overnight at 37°C in a humidified 5% CO2 incubator. […] Cell death or loss of adhesion of hepatocytes during or after treatment were examined by microscopy.
A RNeasy 96 Kit (Qiagen) was used to extract the total cellular RNA from sandwich cultured hepatocytes in 96-well plates following the manufacturer's instructions. A total volume of 200 μL RNA was obtained via the column elution provided in the RNeasy kit. Five μL RNA extraction was mixed with TaqMan® Fast Virus 1-Step Master Mix (Life Technologies) in a final reaction volume of 20 μL and qRT-PCR was achieved using a QuantStudio 6 Flex Real-Time PCR System (Life Technologies), following the manufacturer's instructions. β-actin mRNA expression in the SCHH was used as a house-keeping gene for the normalization of target gene expressions. The mRNA levels in SCHH treated with AhR or CAR activators were expressed by a fold change, compared to the gene expressions without the treatment. […] Gene expression for each condition is expressed as a fold-change of mean ± standard deviation (SD) from three independent donors (each performed in triplicate). All primer and probe sets were purchased from Life Technologies (Table 2). When concentration-dependent induction observed, the in vitro induction mRNA data were fitted using the sigmoid 3-parameter equation in GraphPad Prism (La Jolla, CA) to estimate the in vitro concentration of inducer that produced half the maximum induction values (EC50).

SLC51A (OSTα) = assay: gene induction in sandwich-cultured human hepatocytes (qRT-PCR); type: cell-based; conditions: SCHH, 72 h; TCDD 50 nM, OP 50 µM, CITCO 5 µM, PB 1,000 µM (highest conc.); mean ± SD, three donors
SLC29A1 (ENT1) = assay: as above; type: cell-based; conditions: SCHH, 72 h; TCDD 50 nM, OP 50 µM, CITCO 5 µM, PB 1,000 µM (highest conc.); mean ± SD, three donors
SLC15A1 (PEPT1) = assay: as above; type: cell-based; conditions: SCHH, 72 h; TCDD 50 nM, OP 50 µM, CITCO 5 µM, PB 1,000 µM (highest conc.); mean ± SD, three donors
SLC29A2 (ENT2) = assay: as above; type: cell-based; conditions: SCHH, 72 h; TCDD 50 nM, OP 50 µM, CITCO 5 µM, PB 1,000 µM (highest conc.); mean ± SD, three donors
CYP2C9 = conditions: SCHH, 72 h; TCDD 50 nM, OP 50 µM, CITCO 5 µM, PB 1,000 µM (highest conc.); mean ± SD, three donors
Experimental: as §1
A RNeasy 96 Kit (Qiagen) was used to extract the total cellular RNA from sandwich cultured hepatocytes in 96-well plates following the manufacturer's instructions. […] The 2^−ΔΔCt method ([Livak and Schmittgen, 2001]) was used to analyze the relative changes in gene expression, where the Ct is the cycle number at which the fluorescence in the reaction crosses the preset arbitrary threshold; the ΔCt represents the difference between the Ct target and reference and the ΔΔCt is the difference between the ΔCt of the test and the ΔCt of the preassigned control. Gene expression for each condition is expressed as a fold-change of mean ± standard deviation (SD) from three independent donors (each performed in triplicate). […]

ABCC4 (MRP4) = assay: gene induction in sandwich-cultured human hepatocytes (qRT-PCR); type: cell-based; conditions: SCHH, 72 h; TCDD 50 nM, OP 50 µM, CITCO 5 µM, PB 1,000 µM (highest conc.); mean ± SD, three donors
Experimental: as §1
(§2) A RNeasy 96 Kit (Qiagen) was used to extract the total cellular RNA from sandwich cultured hepatocytes in 96-well plates following the manufacturer's instructions. A total volume of 200 μL RNA was obtained via the column elution provided in the RNeasy kit. Five μL RNA extraction was mixed with TaqMan® Fast Virus 1-Step Master Mix (Life Technologies) in a final reaction volume of 20 μL and qRT-PCR was achieved using a QuantStudio 6 Flex Real-Time PCR System (Life Technologies), following the manufacturer's instructions. β-actin mRNA expression in the SCHH was used as a house-keeping gene for the normalization of target gene expressions. The mRNA levels in SCHH treated with AhR or CAR activators were expressed by a fold change, compared to the gene expressions without the treatment. The 2^−ΔΔCt method ([Livak and Schmittgen, 2001]) was used to analyze the relative changes in gene expression, where the Ct is the cycle number at which the fluorescence in the reaction crosses the preset arbitrary threshold; the ΔCt represents the difference between the Ct target and reference and the ΔΔCt is the difference between the ΔCt of the test and the ΔCt of the preassigned control. Gene expression for each condition is expressed as a fold-change of mean ± standard deviation (SD) from three independent donors (each performed in triplicate). All primer and probe sets were purchased from Life Technologies (Table 2). When concentration-dependent induction observed, the in vitro induction mRNA data were fitted using the sigmoid 3-parameter equation in GraphPad Prism (La Jolla, CA) to estimate the in vitro concentration of inducer that produced half the maximum induction values (EC50).

SLCO1B3 (OATP1B3) = assay: as above; type: cell-based; conditions: SCHH, 72 h; TCDD 50 nM, OP 50 µM, CITCO 5 µM, PB 1,000 µM (highest conc.); mean ± SD, three donors
Experimental: as §1, §2

ABCB1 (MDR1) = assay: as above; type: cell-based; conditions: SCHH, 72 h; TCDD 50 nM, OP 50 µM, CITCO 5 µM, PB 1,000 µM (highest conc.); mean ± SD, three donors
Experimental: as §1, §2

ABCC6 (MRP6) = assay: as above; type: cell-based; conditions: SCHH, 72 h; TCDD 50 nM, OP 50 µM, CITCO 5 µM, PB 1,000 µM (highest conc.); mean ± SD, three donors
Experimental: as §1, §2

ABCC2 (MRP2) = assay: as above; type: cell-based; conditions: SCHH, 72 h; TCDD 50 nM, OP 50 µM, CITCO 5 µM, PB 1,000 µM (highest conc.); mean ± SD, three donors
Experimental: as §1, §2

SLCO2B1 (OATP2B1) = assay: as above; type: cell-based; conditions: SCHH, 72 h; TCDD 50 nM, OP 50 µM, CITCO 5 µM, PB 1,000 µM (highest conc.); mean ± SD, three donors
Experimental: as §1, §2

ABCC3 (MRP3) = assay: as above; type: cell-based; conditions: SCHH, 72 h; TCDD 50 nM, OP 50 µM, CITCO 5 µM, PB 1,000 µM (highest conc.); mean ± SD, three donors
Experimental: as §1, §2

ABCC5 (MRP5) = assay: as above; type: cell-based; conditions: SCHH, 72 h; TCDD 50 nM, OP 50 µM, CITCO 5 µM, PB 1,000 µM (highest conc.); mean ± SD, three donors
Experimental: as §1, §2

SLCO4C1 (OATP4C1) = assay: as above; type: cell-based; conditions: SCHH, 72 h; TCDD 50 nM, OP 50 µM, CITCO 5 µM, PB 1,000 µM (highest conc.); mean ± SD, three donors
Experimental: as §1, §2

ABCB11 (BSEP) = assay: as above; type: cell-based; conditions: SCHH, 72 h; TCDD 50 nM, OP 50 µM, CITCO 5 µM, PB 1,000 µM (highest conc.); mean ± SD, three donors
Experimental: as §1, §2

SLC22A1 (OCT1) = assay: as above; type: cell-based; conditions: SCHH, 72 h; TCDD 50 nM, OP 50 µM, CITCO 5 µM, PB 1,000 µM (highest conc.); mean ± SD, three donors
Experimental: as §1, §2

SLC47A1 (MATE1) = assay: as above; type: cell-based; conditions: SCHH, 72 h; TCDD 50 nM, OP 50 µM, CITCO 5 µM, PB 1,000 µM (highest conc.); mean ± SD, three donors
Experimental: as §1, §2

SLCO1B1 (OATP1B1) = assay: as above; type: cell-based; conditions: SCHH, 72 h; TCDD 50 nM, OP 50 µM, CITCO 5 µM, PB 1,000 µM (highest conc.); mean ± SD, three donors
Experimental: as §1, §2

SLC22A5 (OCTN2) = assay: as above; type: cell-based; conditions: SCHH, 72 h; TCDD 50 nM, OP 50 µM, CITCO 5 µM, PB 1,000 µM (highest conc.); mean ± SD, three donors
UGT1A1 = assay: as above
Experimental: as §1, §2

CYP1A1 = assay: in vitro
Experimental: as §1
as §2, with “When concentration-dependent induction observed, the in vitro induction mRNA data were fitted using the sigmoid 3-parameter equation in GraphPad Prism (La Jolla, CA) to estimate the in vitro concentration of inducer that produced half the maximum induction values (EC50).” left out

SLC51B (OSTβ) = assay: gene induction in sandwich-cultured human hepatocytes (qRT-PCR); type: cell-based; conditions: SCHH, 72 h; TCDD 50 nM, OP 50 µM, CITCO 5 µM, PB 1,000 µM (highest conc.); mean ± SD, three donors
SLC16A1 (MCT1) = assay: as above; type: cell-based; conditions: SCHH, 72 h; TCDD 50 nM, OP 50 µM, CITCO 5 µM, PB 1,000 µM (highest conc.); mean ± SD, three donors
[1] = SCHH, 72 h, TCDD 50 nM, OP 50 µM, CITCO 5 µM, PB 1,000 µM (highest conc.), mean ± SD, three donors

For Clc1cc2c(cc1Cl)Oc1cc(Cl)c(Cl)cc1O2 [TCDD, 2,3,7,8-tetrachlorodibenzo-p-dioxin], the “SLC10A1 (NTCP) mRNA fold change” value (SLC10A1 (NTCP); 72 h, TCDD 50 nM, OP 50 µM, CITCO 5 µM, PB 1,000 µM (highest conc.), mean ± SD, three donors) was 0.5 ± 0.2 fold, the “SLC10A1 gene suppression (reduction)” value (SLC10A1 (NTCP); 3 days, highest concentration treated) was “about 2 fold” and the “SLC22A9 (OAT7) mRNA fold change” value (SLC22A9 (OAT7)) was 0.9 ± 0.2 fold. For the same compound, the “SLC22A7 (OAT2) mRNA fold change” value (SLC22A7 (OAT2)) was 0.8 ± 0.2 fold, the “CYP3A4 mRNA fold change in single donors” value (CYP3A4) was under 0.5 fold and the “SLC51A (OSTα) mRNA fold change” value (SLC51A (OSTα)) was 1.5 ± 0.3 fold. The “SLC29A1 (ENT1) mRNA fold change” value (SLC29A1 (ENT1)) was 0.9 ± 0.4 fold, the “SLC15A1 (PEPT1) mRNA fold change” value (SLC15A1 (PEPT1)) was 1.2 ± 0.3 fold and the “SLC29A2 (ENT2) mRNA fold change” value (SLC29A2 (ENT2)) was 1.0 ± 0.2 fold. The “CYP2C9 mRNA fold change” value (CYP2C9) was 0.8 ± 0.3 fold, the “ABCC4 (MRP4) mRNA fold change” value (ABCC4 (MRP4)) was 0.7 ± 0.2 fold and the “SLCO1B3 (OATP1B3) mRNA fold change” value (SLCO1B3 (OATP1B3)) was 0.8 ± 0.5 fold. For the same compound, the “ABCB1 (MDR1) mRNA fold change” value (ABCB1 (MDR1)) was 1.0 ± 0.3 fold, the “ABCC6 (MRP6) mRNA fold change” value (ABCC6 (MRP6)) was 0.8 ± 0.2 fold and the “ABCC2 (MRP2) mRNA fold change” value (ABCC2 (MRP2)) was 0.9 ± 0.3 fold. The “SLCO2B1 (OATP2B1) mRNA fold change” value (SLCO2B1 (OATP2B1)) was 1.1 ± 0.4 fold, the “ABCC3 (MRP3) mRNA fold change” value (ABCC3 (MRP3)) was 1.0 ± 0.2 fold and the “ABCC5 (MRP5) mRNA fold change” value (ABCC5 (MRP5)) was 0.9 ± 0.3 fold. For the same compound, the “SLCO4C1 (OATP4C1) mRNA fold change” value (SLCO4C1 (OATP4C1)) was 0.8 ± 0.3 fold, the “ABCB11 (BSEP) mRNA fold change” value (ABCB11 (BSEP)) was 0.7 ± 0.3 fold and the “SLC22A1 (OCT1) mRNA fold change” value (SLC22A1 (OCT1)) was 0.7 ± 0.3 fold. For the same compound, the “SLC47A1 (MATE1) mRNA fold change” value (SLC47A1 (MATE1)) was 0.9 ± 0.3 fold, the “SLCO1B1 (OATP1B1) mRNA fold change” value (SLCO1B1 (OATP1B1)) was 1.0 ± 0.4 fold and the “SLC22A5 (OCTN2) mRNA fold change” value (SLC22A5 (OCTN2)) was 1.1 ± 0.2 fold. For the same compound, the “UGT1A1 mRNA fold change” value (UGT1A1; [1]) was 4.3 fold and 4.3 ± 1.5 fold, the EC50 at 72 h (UGT1A1; human) was 1.56 ± 0.4 nM and the “CYP1A1 mRNA fold change” value (CYP1A1; [1]) was 38 fold and 38.1 ± 19.2 fold. The EC50 at 72 h (CYP1A1; human) was 0.5 ± 0.11 nM, the “SLC51B (OSTβ) mRNA fold change” value (SLC51B (OSTβ)) was 1.6 ± 0.3 fold and the “SLC16A1 (MCT1) mRNA fold change” value (SLC16A1 (MCT1)) was 1.0 ± 0.2 fold.
